# Patent US7728012B2, “Carboxamide compounds and their use as calpain inhibitors” (Abbott GmbH & Co. KG, priority 2006, dated 2010)
# Columns and labels:
# Type in all cases: biochemical
# [1] = biological target: T1, cathepsin L isolated from human liver (Homo sapiens, UniProt P07711); assay: Cathepsin L kinetic fluorescence enzyme inhibition assay; details: selectivity ratio versus calpain I
# T1 construct: cathepsin L—isolated from human liver; purchased Calbiochem 219402; host or cells: human liver (tissue isolate)
# T1 sequence (P07711 114-333): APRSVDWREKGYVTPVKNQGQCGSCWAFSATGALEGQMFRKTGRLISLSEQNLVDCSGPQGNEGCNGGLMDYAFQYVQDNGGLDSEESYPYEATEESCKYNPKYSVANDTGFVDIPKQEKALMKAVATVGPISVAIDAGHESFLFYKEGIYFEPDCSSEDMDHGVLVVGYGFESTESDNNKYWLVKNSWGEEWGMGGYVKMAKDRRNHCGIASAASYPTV
# How it was run: (§1)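 Cathepsin B (0.25 nM, human liver) with 100 μM Z-Phe-Arg-AMC; L (1 nM, human liver) with 2 μM Z-Phe-Arg-AMC; S (0.5 nM, recombinant) with 20 μM Z-Val-Val-Arg-AMC. pH 6.0 MES buffer, 2.5 mM L-cysteine, room temperature. Kinetic fluorescence (ex 390/em 460 nm); apparent Ki from IC50 by Cheng-Prusoff.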
# [2] = biological target: T2, cathepsin K activated from recombinant human procathepsin K (Homo sapiens, UniProt P43235); assay: Cathepsin K kinetic fluorescence enzyme inhibition assay; details: selectivity ratio versus calpain I
# T2 construct: purchased Calbiochem 342001; host or cells: E. coli
# T2 sequence (P43235 115-329): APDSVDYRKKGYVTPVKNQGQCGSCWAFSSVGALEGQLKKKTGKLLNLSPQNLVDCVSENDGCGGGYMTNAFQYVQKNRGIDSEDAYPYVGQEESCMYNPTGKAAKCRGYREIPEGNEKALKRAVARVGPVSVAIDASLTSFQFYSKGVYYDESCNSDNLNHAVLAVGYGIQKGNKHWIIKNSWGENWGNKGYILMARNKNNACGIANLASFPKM
# [3] = biological target: T3, recombinant human cathepsin S (Homo sapiens, UniProt P25774); assay: Cathepsin S kinetic fluorescence enzyme inhibition assay; details: selectivity ratio versus calpain I
# T3 construct: purchased Calbiochem 219343; host or cells: E. coli
# T3 sequence (P25774 115-331): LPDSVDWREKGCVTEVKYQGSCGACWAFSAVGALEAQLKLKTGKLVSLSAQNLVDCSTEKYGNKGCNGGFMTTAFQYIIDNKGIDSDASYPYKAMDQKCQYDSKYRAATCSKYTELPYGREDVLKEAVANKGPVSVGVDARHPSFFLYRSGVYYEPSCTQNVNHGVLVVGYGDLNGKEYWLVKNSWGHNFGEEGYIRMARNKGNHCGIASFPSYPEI
# How it was run: as §1
# [4] = biological target: T4, cathepsin B isolated from human liver (Homo sapiens, UniProt P07858); assay: Cathepsin B kinetic fluorescence enzyme inhibition assay; details: selectivity ratio versus calpain I
# T4 construct: cathepsin B—isolated from human liver; purchased Calbiochem 219362; host or cells: human liver (tissue isolate)
# How it was run: as §1
# [5] = biological target: T5, calpain-I isolated from human erythrocytes (Homo sapiens, UniProt P07384); assay: Calpain I kinetic fluorescence enzyme inhibition assay; details: apparent Ki from IC50 by Cheng-Prussoff; average of 2 to 4 dose-effect plots
# T5 construct: calpain-I—isolated from human erythrocytes; purchased Calbiochem 208713; host or cells: human erythrocytes (tissue isolate)
# T5 sequence (P07384 1-714): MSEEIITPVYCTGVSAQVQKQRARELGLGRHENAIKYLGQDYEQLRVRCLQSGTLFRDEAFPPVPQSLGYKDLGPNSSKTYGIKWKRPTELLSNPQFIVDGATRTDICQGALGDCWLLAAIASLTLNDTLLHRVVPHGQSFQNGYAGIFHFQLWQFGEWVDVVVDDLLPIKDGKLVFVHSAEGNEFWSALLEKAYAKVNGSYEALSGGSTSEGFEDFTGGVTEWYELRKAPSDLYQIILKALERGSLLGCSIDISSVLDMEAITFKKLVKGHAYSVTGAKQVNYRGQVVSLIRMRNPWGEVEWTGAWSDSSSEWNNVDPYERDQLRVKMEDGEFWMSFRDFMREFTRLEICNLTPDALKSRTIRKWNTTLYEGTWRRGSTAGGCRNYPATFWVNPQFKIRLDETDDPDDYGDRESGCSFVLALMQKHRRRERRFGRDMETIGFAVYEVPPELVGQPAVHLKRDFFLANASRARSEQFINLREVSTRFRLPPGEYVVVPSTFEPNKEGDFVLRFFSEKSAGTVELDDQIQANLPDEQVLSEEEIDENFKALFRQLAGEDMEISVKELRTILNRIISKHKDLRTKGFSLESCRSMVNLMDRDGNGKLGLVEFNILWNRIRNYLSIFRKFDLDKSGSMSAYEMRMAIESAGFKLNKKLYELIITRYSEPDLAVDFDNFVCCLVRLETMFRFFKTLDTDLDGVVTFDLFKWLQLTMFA
# T5 sequence (P04632 1-268 partner): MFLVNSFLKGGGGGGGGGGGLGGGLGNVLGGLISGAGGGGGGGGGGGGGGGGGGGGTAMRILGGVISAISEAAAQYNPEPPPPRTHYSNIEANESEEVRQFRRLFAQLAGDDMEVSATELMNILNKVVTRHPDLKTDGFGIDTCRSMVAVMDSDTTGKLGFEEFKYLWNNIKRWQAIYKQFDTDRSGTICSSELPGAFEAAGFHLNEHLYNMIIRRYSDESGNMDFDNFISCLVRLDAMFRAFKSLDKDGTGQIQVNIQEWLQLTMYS
SMILES,Ki [5],Sel cat. L (Ki(cathepsin L)/Ki(calpain) ratio) [1],Sel cat. K (Ki(cathepsin K)/Ki(calpain) ratio) [2],Sel cat. S (Ki(cathepsin S)/Ki(calpain) ratio) [3],Sel cat. B (Ki(cathepsin B)/Ki(calpain) ratio) [4]
"Cc1c(Cl)ccc2c1-c1nn(-c3ncccc3C(=O)NC(Cc3ccccc3)C(=O)C(N)=O)cc1CO2 (stereo not shown) [Example 143, N-[3-Amino-2,3-dioxo-1-(phenylmethyl)propyl]-2-(8-chloro-9-methylchromeno[4,3-c]pyrazol-2(4H)-yl)pyridine-3-carboxamide]",40 to 100 nM,++ (Ki(cathepsin L)/Ki(calpain) ratio of ≧50),++ (Ki(cathepsin K)/Ki(calpain) ratio of ≧30),++ (Ki(cathepsin S)/Ki(calpain) ratio of ≧100),++ (Ki(cathepsin B)/Ki(calpain) ratio of ≧30)
"COc1ccc(CC(NC(=O)c2cccnc2-n2ccc(-c3cccc(Cl)c3Cl)n2)C(=O)C(N)=O)cc1 (stereo not shown) [Example 153, N-(3-Aamino-1-{[4-(methyloxy)phenyl]methyl}-2,3-dioxopropyl)-2-[3-(2,3-dichlorophenyl)-1H-pyrazol-1-yl]pyridine-3-carboxamide]",≤ 40 nM,++ (Ki(cathepsin L)/Ki(calpain) ratio of ≧50),++ (Ki(cathepsin K)/Ki(calpain) ratio of ≧30),++ (Ki(cathepsin S)/Ki(calpain) ratio of ≧100),++ (Ki(cathepsin B)/Ki(calpain) ratio of ≧30)
"NC(=O)C(=O)C(Cc1ccccc1)NC(=O)c1cccnc1-n1ccc(-c2cccc(C(F)(F)F)c2Cl)n1 (stereo not shown) [Example 155, N-[3-Amino-2,3-dioxo-1-(phenylmethyl)propyl]-2-{3-[2-chloro-3-(trifluoromethyl)phenyl]-1H-pyrazol-1-yl}pyridine-3-carboxamide]",40 to 100 nM,++ (Ki(cathepsin L)/Ki(calpain) ratio of ≧50),++ (Ki(cathepsin K)/Ki(calpain) ratio of ≧30),++ (Ki(cathepsin S)/Ki(calpain) ratio of ≧100),++ (Ki(cathepsin B)/Ki(calpain) ratio of ≧30)
"CS(=O)(=O)Nc1cnc(-n2ccc(-c3ccccc3)n2)c(C(=O)NC(Cc2ccccc2)C(=O)C(N)=O)c1 (stereo not shown) [Example 158, N-[3-Amino-2,3-dioxo-1-(phenylmethyl)propyl]-5-[(methylsulfonyl)amino]-2-(3-phenyl-1H-pyrazol-1-yl)pyridine-3-carboxamide]",40 to 100 nM,++ (Ki(cathepsin L)/Ki(calpain) ratio of ≧50),++ (Ki(cathepsin K)/Ki(calpain) ratio of ≧30),++ (Ki(cathepsin S)/Ki(calpain) ratio of ≧100),++ (Ki(cathepsin B)/Ki(calpain) ratio of ≧30)
"NC(=O)C(=O)C(Cc1ccccc1)NC(=O)c1cccnc1-n1ccc(-c2cccc3cccnc23)n1 (stereo not shown) [Example 160, N-[3-amino-2,3-dioxo-1-(phenylmethyl)propyl]-2-(3-quinolin-8-yl-1H-pyrazol-1-yl)pyridine-3-carboxamide]",40 to 100 nM,++ (Ki(cathepsin L)/Ki(calpain) ratio of ≧50),++ (Ki(cathepsin K)/Ki(calpain) ratio of ≧30),++ (Ki(cathepsin S)/Ki(calpain) ratio of ≧100),++ (Ki(cathepsin B)/Ki(calpain) ratio of ≧30)
"NC(=O)C(=O)C(Cc1cccc(F)c1)NC(=O)c1cccnc1-n1ccc(-c2ccccc2OC(F)(F)F)n1 (stereo not shown) [Example 162, N-{3-Amino-1-[(3-fluorophenyl)methyl]-2,3-dioxopropyl}-2-(3-{2-[(trifluoromethyl)oxy]phenyl}-1H-pyrazol-1-yl)pyridine-3-carboxamide]",40 to 100 nM,++ (Ki(cathepsin L)/Ki(calpain) ratio of ≧50),++ (Ki(cathepsin K)/Ki(calpain) ratio of ≧30),++ (Ki(cathepsin S)/Ki(calpain) ratio of ≧100),++ (Ki(cathepsin B)/Ki(calpain) ratio of ≧30)
"NC(=O)C(=O)C(Cc1ccccc1)NC(=O)c1cccnc1-n1ccc(-c2cc(C(F)(F)F)ccc2CN2CCOCC2)n1 (stereo not shown) [Example 163, N-[3-Amino-2,3-dioxo-1-(phenylmethyl)propyl]-2-{3-[2-(morpholin-4-ylmethyl)-5-(trifluoromethyl)phenyl]-1H-pyrazol-1-yl}pyridine-3-carboxamide]",40 to 100 nM,+ (30≦Ki(cathepsin L)/Ki(calpain)<50),+ (10≦Ki(cathepsin K)/Ki(calpain)<30),++ (Ki(cathepsin S)/Ki(calpain) ratio of ≧100),+ (10≦Ki(cathepsin B)/Ki(calpain)<30)

# Second part, led by results:
Ki [5],SMILES,Sel cat. L (Ki(cathepsin L)/Ki(calpain) ratio) [1],Sel cat. K (Ki(cathepsin K)/Ki(calpain) ratio) [2],Sel cat. S (Ki(cathepsin S)/Ki(calpain) ratio) [3],Sel cat. B (Ki(cathepsin B)/Ki(calpain) ratio) [4]
≤ 40 nM,"COc1ccc2c(c1)OCc1cn(-c3ncccc3C(=O)NC(Cc3ccccc3)C(=O)C(N)=O)nc1-2 (stereo not shown) [Example 142, N-[3-Amino-2,3-dioxo-1-(phenylmethyl)propyl]-2-[7-(methyloxy)chromeno[4,3-c]pyrazol-2(4H)-yl]pyridine-3-carboxamide]",++ (Ki(cathepsin L)/Ki(calpain) ratio of ≧50),+ (10≦Ki(cathepsin K)/Ki(calpain)<30),++ (Ki(cathepsin S)/Ki(calpain) ratio of ≧100),+ (10≦Ki(cathepsin B)/Ki(calpain)<30)
≤ 40 nM,"NC(=O)C(=O)C(Cc1ccc(F)cc1)NC(=O)c1cccnc1-n1ccc(-c2ccccc2OC(F)(F)F)n1 (stereo not shown) [Example 152, N-{3-Amino-1-[(4-fluorophenyl)methyl]-2,3-dioxopropyl}-2-(3-{2-[(trifluoromethyl)oxy]phenyl}-1H-pyrazol-1-yl)pyridine-3-carboxamide]",++ (Ki(cathepsin L)/Ki(calpain) ratio of ≧50),++ (Ki(cathepsin K)/Ki(calpain) ratio of ≧30),++ (Ki(cathepsin S)/Ki(calpain) ratio of ≧100),++ (Ki(cathepsin B)/Ki(calpain) ratio of ≧30)
≤ 40 nM,"COc1ccc(CC(NC(=O)c2cccnc2-n2ccc(-c3cccc(F)c3Cl)n2)C(=O)C(N)=O)cc1 (stereo not shown) [Example 157, N-(3-Amino-1-{[4-(methyloxy)phenyl]methyl}-2,3-dioxopropyl)-2-[3-(2-chloro-3-fluorophenyl)-1H-pyrazol-1-yl]pyridine-3-carboxamide]",++ (Ki(cathepsin L)/Ki(calpain) ratio of ≧50),++ (Ki(cathepsin K)/Ki(calpain) ratio of ≧30),++ (Ki(cathepsin S)/Ki(calpain) ratio of ≧100),++ (Ki(cathepsin B)/Ki(calpain) ratio of ≧30)
≤ 40 nM,"NC(=O)C(=O)C(Cc1ccccc1)NC(=O)c1cccnc1-n1ccc(-c2cccc3c2OCC3)n1 (stereo not shown) [Example 164, N-[3-Amino-2,3-dioxo-1-(phenylmethyl)propyl]-2-[3-(2,3-dihydro-1-benzofuran-7-yl)-1H-pyrazol-1-yl]pyridine-3-carboxamide]",++ (Ki(cathepsin L)/Ki(calpain) ratio of ≧50),++ (Ki(cathepsin K)/Ki(calpain) ratio of ≧30),++ (Ki(cathepsin S)/Ki(calpain) ratio of ≧100),+ (10≦Ki(cathepsin B)/Ki(calpain)<30)
